Reference: ChEMBL document CHEMBL3091282, “Synthesis and evaluation of stability of m3G-CAP analogues in serum-supplemented medium and cytosolic extract” (Bioorg Med Chem, 2013)

Legend:
[1] = Stability of the compound in DMEM assessed as compound remaining after 40 mins by RP-HPLC analysis in presence of fetal bovine serum; assay type: physicochemical; details: cattle, DMEM with fetal bovine serum; read-out: Stability
[2] = Half life in DMEM by RP-HPLC analysis in presence of fetal bovine serum; assay type: ADME; details: cattle, DMEM with fetal bovine serum
[3] = Half life in human HeLa cell cytosolic extract by RP-HPLC analysis; assay type: ADME, cell-based, Cytosol

remaining at 40 min [1] [%] | half-life [2] [h] | half-life [3] [h] | SMILES
35 | 0.367 | 10 | CO[C@@H]1[C@H](O)[C@@H](COP(=O)([O-])OP(=O)(O)CP(=O)(O)OC[C@H]2O[C@@H](n3c[n+](C)c4c(=O)[nH]c(N(C)C)nc43)[C@H](O)[C@@H]2O)O[C@H]1n1cnc2c(N)ncnc21
52 | 0.583 | 120 | CO[C@@H]1[C@H](O)[C@@H](COP(=O)(O)CP(=O)(O)OP(=O)([O-])OC[C@H]2O[C@@H](n3c[n+](C)c4c(=O)[nH]c(N(C)C)nc43)[C@H](O)[C@@H]2O)O[C@H]1n1cnc2c(N)ncnc21
15 | 0.217 | 10 | CO[C@@H]1[C@H](O)[C@@H](COP(=O)(O)OP(=O)([O-])OP(=O)(O)OC[C@H]2O[C@@H](n3c[n+](C)c4c(=O)[nH]c(N(C)C)nc43)[C@H](O)[C@@H]2O)O[C@H]1n1cnc2c(N)ncnc21
